From patent US8252832B2, “Kinesin inhibitors as cancer therapeutics” (Novartis AG, priority 2007, dated 2012)
Where two headings read alike, the source gives them in different places.

What was measured:
Assay in all cases: CellTiter-Glo, NCI60 panel
Type in all cases: cell-based
MCF7 = conditions: Breast; for GI50: Homo sapiens
Description: (§1) Identification of tumor types that are the most sensitive to the KSP inhibitors of the present invention can be accomplished using an unbiased approach that uses several cell-based assays. The assays chosen were as follows: • CellTiter-Glo®. This is an assay designed to measure ATP concentration in a cell culture, and can be correlated to cell number. Briefly CellTiter-Glo® (Promega Corporation) is a homogeneous method using the single CellTiter-Glo® reagent to detect ATP wherein ATP in the assay drives the activity of a thermostable luciferase to create a luminescent signal which can then be measured and correlated with the number of viable cells. Briefly, for adherent cells, 1,000 to 5,000 cells/well were plated in 96-well plates (100 μl/well) and let to adhere for 24 hours before being treated with drug. For non-adherent cells, 1,000 to 10,000 cells/well were plated in 96-well plates (100 μl/well) and immediately treated with drug. Drug dilutions were prepared in DMSO at 1000 times the final concentration. These dilutions were then diluted 1/100 in growth media before being added to the cells (11 μl/well) to achieve the desired final concentration. After 48 h in a 37° C. tissue culture incubator, the plates were processed for the CellTiter-Glo®assay according to the manufacturer's instructions. Protocol for a 72 hour cell proliferation assay: The 72 hour assay was performed the same way as the 48 hour assay except for the following modifications: For adherent cells, 500 to 5,000 cells/well were plated in 96-well plates (90 μl/well cell growth media) and left to adhere for 24 hours before being treated with drug. For non-adherent cells, 1,000 to 10,000 cells/well were plated in 96-well plates (90 μl/well cell growth media) and immediately treated with drug. Data values presented represent the concentration of test compound required for a 50% reduction in growth. • LDH release. The Cytotoxicity Detection KitPLUS (LDH) assay (Roche Diagnostics, Manheim, Germany) measures the amount of LDH released in the media by dying cells; LDH catalyzes the conversion of lactate into pyruvate. The enzymatic reaction is coupled to a chemical reaction that uses a tetrazolium salt to form a formazan that is red and can be detected by its absorbance at 490 nm. This assay measures the amount of cell death after drug treatment. Cells were plated at 10,000 cells/well in 96-well plates (100 μl/well). Adherent cells were let to adhere for 24 hours before being treated with drug, whereas non-adherent cells were immediately treated with drug. Drug dilutions were prepared in DMSO at 1000 times the final concentration. These dilutions were then diluted 1/100 in growth media before being added to the cells (11 μl/well) to achieve the desired final concentration. After 48 h in a 37° C. tissue culture incubator, the plates were processed for the Cytotoxicity Detection KitPLUS (LDH) assay according to the manufacturer's instructions. The media only values were subtracted from all the data points before analysis. Data values presented correspond to the compound concentration wherein LDH output is at half maximal level. • Caspase-Glo® 3/7. The Caspase-Glo® 3/7 Assay (Promega Corporation) is a homogeneous luminescent assay that measures caspase-3/7 activities. The assay provides a proluminescent caspase-3/7 DEVD-aminoluciferin substrate and a thermostable luciferase in a reagent optimized for caspase-3/7 activity, luciferase activity and cell lysis. Adding the single Caspase-Glo® 3/7 Reagent results in cell lysis, followed by caspase cleavage of the substrate. This liberates free aminoluciferin, which is consumed by the luciferase, generating a luminescent signal. The signal is proportional to caspase-3/7 activity. Data values presented correspond to the compound concentration wherein caspase 3/7 activity is at half maximal level. […]

M14 = conditions: Melanoma; for GI50: Homo sapiens
Description: as §1

NCI-H23 = conditions: NSCL; for GI50: Homo sapiens
Description: as §1

CAKI-1 = conditions: Renal; for GI50: Homo sapiens
Description: as §1

RPMI-8226 = conditions: Leukemia; for GI50: Homo sapiens
Description: as §1

SF-539 = conditions: CNS; for GI50: Homo sapiens
Description: as §1

A549 = conditions: NSCL; for GI50: Homo sapiens
Description: as §1

OVCAR-8 = conditions: Ovarian; for GI50: Homo sapiens
Description: as §1

SNB-75 = conditions: CNS; for GI50: Homo sapiens
Description: as §1

SK-MEL-2 = conditions: Melanoma; for GI50: Homo sapiens
Description: as §1

UACC-257 = conditions: Melanoma; for GI50: Homo sapiens
Description: as §1

A498 = conditions: Renal; for GI50: Homo sapiens
Description: as §1

NCI-H322M = conditions: NSCL; for GI50: Homo sapiens
Description: as §1

NCI-H522 = conditions: NSCL; for GI50: Homo sapiens
Description: as §1

786-0 = conditions: Renal; for GI50: Homo sapiens
Description: as §1

PC-3 = conditions: Prostate; for GI50: Homo sapiens
Description: as §1

[1] = GI50 in nM, read-out: Log(GI50) (converted)

CC(C)(C)[C@H](c1nc(-c2cc(F)ccc2F)cn1Cc1ccccc1)N(CC[C@H](N)CF)C(=O)CO [Compound IIa]
0.351 nM: GI50 (RPMI-8226; [1]) | GI50 (RPMI-8226; read-out: GI50)
0.166 nM: GI50 (NCI-H522; [1]) | GI50 (NCI-H522; read-out: GI50)
0.821: Differential vs mean Log(GI50) (OVCAR-8)
0.387 nM: GI50 (SF-539; [1]) | GI50 (SF-539; read-out: GI50)
0.223 nM: GI50 (NCI-H23; [1]) | GI50 (NCI-H23; read-out: GI50)
0.209 nM: GI50 (M14; [1]) | GI50 (M14; read-out: GI50)
0.983: Differential vs mean Log(GI50) (NCI-H23)
0.786: Differential vs mean Log(GI50) (RPMI-8226)
1.111: Differential vs mean Log(GI50) (NCI-H522)
10 nM: GI50 (MCF7; [1]) | GI50 (MCF7; read-out: GI50) | GI50 (CAKI-1; [1]) | GI50 (CAKI-1; read-out: GI50) | GI50 (A549; [1]) | GI50 (A549; read-out: GI50) | GI50 (SNB-75; [1]) | GI50 (SNB-75; read-out: GI50) | GI50 (UACC-257; [1]) | GI50 (UACC-257; read-out: GI50) | GI50 (A498; [1]) | GI50 (A498; read-out: GI50) | GI50 (NCI-H322M; [1]) | GI50 (NCI-H322M; read-out: GI50) | GI50 (786-0; [1]) | GI50 (786-0; read-out: GI50) | GI50 (PC-3; [1]) | GI50 (PC-3; read-out: GI50)
−0.669: Differential vs mean Log(GI50) (MCF7) | Differential vs mean Log(GI50) (CAKI-1) | Differential vs mean Log(GI50) (A549) | Differential vs mean Log(GI50) (SNB-75) | Differential vs mean Log(GI50) (UACC-257) | Differential vs mean Log(GI50) (A498) | Differential vs mean Log(GI50) (NCI-H322M) | Differential vs mean Log(GI50) (786-0) | Differential vs mean Log(GI50) (PC-3)
2.77 nM: GI50 (SK-MEL-2; [1]) | GI50 (SK-MEL-2; read-out: GI50)
−0.112: Differential vs mean Log(GI50) (SK-MEL-2)
0.743: Differential vs mean Log(GI50) (SF-539)
0.324 nM: GI50 (OVCAR-8; [1]) | GI50 (OVCAR-8; read-out: GI50)
1.011: Differential vs mean Log(GI50) (M14)
